Results on two compounds are retold here after PMC10757358 (The Journal of steroid biochemistry and molecular biology, 2023).

The test system of experiment [1] is NCI-H295R human adrenocortical cancer cell line. As to conditions: NCI-H295R cells.
Experiment [2] concerns the target T1, CYP11A1 (Homo sapiens, UniProt P05108).
The subject of experiment [3] is CYP11B1. As to conditions: read-out: reported IC50, CYP11B1; in-vitro studies; cited from earlier work.
Experiment [4] deals with CYP11B2. As to conditions: read-out: reported IC50, CYP11B2; in-vitro studies; cited from earlier work.
The target in experiment [5] is T1, CYP11A1. Briefly: biochemical.
Experiment [6] deals with T2, CYP11B1 (Homo sapiens, UniProt P15538).
T2 sequence (P15538 25-503): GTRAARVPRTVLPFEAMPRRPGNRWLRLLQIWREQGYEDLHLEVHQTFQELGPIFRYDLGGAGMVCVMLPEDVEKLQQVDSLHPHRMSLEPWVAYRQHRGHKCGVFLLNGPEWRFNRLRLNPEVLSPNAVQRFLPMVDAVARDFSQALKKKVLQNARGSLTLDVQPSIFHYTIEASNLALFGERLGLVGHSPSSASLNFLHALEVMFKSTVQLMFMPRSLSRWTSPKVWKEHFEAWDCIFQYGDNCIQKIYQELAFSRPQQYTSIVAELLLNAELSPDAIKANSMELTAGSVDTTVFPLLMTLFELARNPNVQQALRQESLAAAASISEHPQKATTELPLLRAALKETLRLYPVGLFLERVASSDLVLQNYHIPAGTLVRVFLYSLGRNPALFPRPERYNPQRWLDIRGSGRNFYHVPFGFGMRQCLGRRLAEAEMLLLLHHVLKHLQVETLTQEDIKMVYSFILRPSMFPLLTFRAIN
Description: biochemical.

Experiment [7] concerns the target T3, CYP11B2 (Homo sapiens, UniProt P19099).
T3 sequence (P19099 25-503): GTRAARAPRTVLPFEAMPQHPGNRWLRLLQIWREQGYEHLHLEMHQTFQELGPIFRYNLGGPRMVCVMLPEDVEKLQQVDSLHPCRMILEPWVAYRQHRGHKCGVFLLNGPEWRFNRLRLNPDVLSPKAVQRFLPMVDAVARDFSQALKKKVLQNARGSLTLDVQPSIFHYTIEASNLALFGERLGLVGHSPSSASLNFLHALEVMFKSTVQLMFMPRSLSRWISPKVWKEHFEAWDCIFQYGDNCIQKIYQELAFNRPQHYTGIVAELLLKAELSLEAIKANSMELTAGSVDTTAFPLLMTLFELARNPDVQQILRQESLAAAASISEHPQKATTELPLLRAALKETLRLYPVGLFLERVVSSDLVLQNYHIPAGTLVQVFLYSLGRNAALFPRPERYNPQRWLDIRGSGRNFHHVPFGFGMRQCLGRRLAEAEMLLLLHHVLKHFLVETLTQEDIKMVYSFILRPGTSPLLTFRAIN
Briefly: biochemical.

Usually inhibition stands for the drop in the measured response relative to a control, in per cent. The low end stands for little suppression, the high end for strong suppression. What is called IC50 is the concentration that inhibits the measured activity by half. A word on the Kd: it is the equilibrium constant for the complex coming apart. A high value points to weaker binding.

T1 sequence (P05108 40-521): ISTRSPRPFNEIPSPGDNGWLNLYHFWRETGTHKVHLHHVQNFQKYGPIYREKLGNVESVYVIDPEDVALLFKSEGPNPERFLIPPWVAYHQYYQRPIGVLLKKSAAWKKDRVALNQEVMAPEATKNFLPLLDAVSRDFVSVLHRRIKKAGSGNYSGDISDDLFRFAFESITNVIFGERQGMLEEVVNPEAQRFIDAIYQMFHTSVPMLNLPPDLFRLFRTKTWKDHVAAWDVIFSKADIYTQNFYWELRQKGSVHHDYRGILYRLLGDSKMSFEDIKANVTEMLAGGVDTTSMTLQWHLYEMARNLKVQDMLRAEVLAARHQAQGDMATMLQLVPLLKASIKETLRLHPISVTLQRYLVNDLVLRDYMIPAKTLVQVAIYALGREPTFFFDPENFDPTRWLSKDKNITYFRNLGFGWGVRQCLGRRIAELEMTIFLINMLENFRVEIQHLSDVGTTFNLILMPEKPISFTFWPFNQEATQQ

Take `N#Cc1ccc([C@H]2CCc3cncn32)c(F)c1` [LCI699, Osilodrostat]: in experiment [1] (0-1000 nM LCI699, 24 h), the “aldosterone production, % of baseline” value is reported as 2 ± 3%; the androstenedione level entry is reported as “remained unchanged”; the “corticosterone, % of the baseline” value is 1 ± 2%; the “cortisol production, % of baseline” value worked out at 13 ± 4%. Moreover, in experiment [1] (higher concentrations of LCI699, changes did not reach statistical significance), the 11-deoxycortisol level result was “appeared to increase”. Besides, the inhibition in experiment [2] was less than 25%. Besides, the IC50 in experiment [3] is […]. In experiment [4], the IC50 was […]. In addition, in experiment [5], the equilibrium dissociation constant (Kd) is 18800 nM.

For the compound `C[C@]12CC[C@H]3[C@@H](CCC4=CC(=O)CC[C@@]43C)[C@@H]1CC[C@@H]2C(=O)CO` [DOC, 11-deoxycorticosterone], the equilibrium dissociation constant (Kd) was determined as 420 nM in experiment [6] and 270 nM in experiment [7].
